# From US11801235B2, “Methods and compositions for delivery of biotin to mitochondria” (priority 2020, dated 2023)
# Square brackets hold non-standard residues; d marks the D form. Peptide text beside a SMILES is read from it. * marks the point of attachment. Biotin = O=C1N[C@H]2[C@H](CS[C@H]2CCCCC(=O)*)N1
# Experiments:
# mouse retina = details: 30 mg/kg ip
# Protocol: SPN15 (30 mg/kg) was administered ip to a 13-month-old male mouse (C57BL/6J strain). At 2-hours after administration, the mouse was anesthetized with an overdose of ketamine/xylazine, and the eyes enucleated. After the cornea and lens were removed, the eyecup was fixed for 1.25 hours in 4% paraformaldehyde in 0.1M Tris buffer. The eyecup was then rinsed 3 times for 10 minutes each in Tris buffer and then cryoprotected in 10%, 20%, and 30% sucrose before sectioning at 30 um with a Leica 3050 cryostat. Sections were stored at −20° C. until used.
# To label biotin on SPN15, sections were incubated with Streptavidin conjugated AlexaFluor 594 (1:500) from Jackson ImmunoResearch, West Grove, PA). ToPro 3 (nuclear stain, 1:1000, Molecular Probes) was used to stain cell nuclei. Mitochondria localization was determined using an antibody to Cox IV (cytochrome c oxidase subunit 4; PA529992, 1:300, Invitrogen) and Mitotracker Red (1:1500 in Tris, Invitrogen). All incubations were carried out in microwave (150W) except for Cox IV and Mitotracker labeling, which was done with primary antibody overnight at 4° C. followed by secondary antibody (AF488 conjugated donkey anti-rabbit, Jackson Immunoresearch). Sections were imaged using the Olympus Fluoview 300 with helium, argon and neon lasers using 40× oil immersion lens at a resolution of 1024×1024.
# [1] = tested on: ARPE-19 human retinal pigment epithelial cells; experiment: Mitochondrial localization: co-localization with cytochrome c oxidase subunit 4 (COX4); assay type: cell-based; details: ARPE-19 cells, 1 uM, 2 hours, serum-free DMEM/F12
# Protocol: Cells were fixed with 4% PFA at RT for 10 min and then permeabilized with 0.1% Triton X-100 at RT for 10 min. Cells were blocked with 2% BSA (bovine serum albumin) at RT for 30 min, and then incubated with primary antibody for cytochrome c oxidase subunit 4 (COX4), a major protein complex expressed on the inner mitochondrial membrane. The rabbit polyclonal COX4 antibody (Invitrogen PAS-29992, Waltham, MA) was used at 1:500 dilution in 2% BSA at 4° C. overnight.
# HK-2 cells = experiment: In vitro scratch assay (scratch area); assay type: cell-based, human; details: 10 nM, serum-free, 24 hours
# Protocol: (§1) Certain exemplary peptide-conjugated biotin molecules can accelerate wound healing in cell cultures. The in vitro scratch assay is an easy and well-developed method to measure cell proliferation and migration over a “wound area” in vitro. This assay involves creating a “scratch” in a cell monolayer with a pipette tip and then examining the rate at which cells proliferate and migrate to close the scratch.
# 3×10^5 cells were plated per well in 6-well plates in DMEM at 37° C. in a humidified incubator with 5% CO2 for one day prior to the experiment. To mimic the microenvironment of wounds in vitro, serum-free medium was used in the scratch assay. On the day of the scratch assay, the medium was replaced with serum-free DMEM, and a line scraped across the cell monolayer using a p1000 pipette tip. Cells were washed to remove cell debris and replaced with DMEM alone (control), or DMEM containing 10 nM biotin or peptide-conjugated biotin molecules.
# (§2) The scratch area was examined immediately (day 0) using a Nikon Eclipse Ti2 fluorescence microscope. Six different field were captured for each sample using 4×objective. The scratch area (cell-free zone) was calculated using ImageJ software, an open-source Java image processing program inspired by NIH Image (National Institute of Health). The scratch area was re-examined after 24 hours (day 1), and the area was normalized to the area determined on day 0 for the same sample. All results were calculated as change from no-treatment control and averaged for the six fields.
# ARPE-19 cells [2] = experiment: In vitro scratch assay (scratch area); assay type: cell-based, human
# Description: as §1, §2
# [3] = tested on: Human retinal pigment epithelial cells (ARPE-19); experiment: Mitochondrial potential (TMRM/MitoView Green) after serum starvation; assay type: cell-based; details: ARPE-19 cells, 3 days of serum starvation, then 1 uM for 2 hours
# Protocol: ARPE-19 cells were seeded in 35 mm glass plates at an initial density of 5×10^4 cells. […] Cells were then incubated in serum-free DMEM/F12 alone (control group) or DMEM/F12 containing 1 uM of SPN12 or SPN15 for 2 hours.
# To determine mitochondrial potential, live cells were incubated with 5 nM tetramethylrhodamine methyl ester (TMRM, #70017, Biotium, Fremont, CA) in DMEM without phenol red. TMRM is a potential-dependent fluorescent dye (Ex/Em=548/573). TMRM accumulates in negatively charged polarized mitochondria and can be detected as red fluorescence. Total mitochondria were imaged with a mitochondrial potential-independent fluorescent dye (100 nM MitoView Green; Ex/Em=490/523; #70054, Biotium, Fremont CA). Hoechst 33342 (10 ug/ml, Novus Biologicals, Centennial, CO) was added to stain nuclei. Live cells were covered with phosphate buffer and imaged using the Nikon Eclipse Ti fluorescent microscopy using the 60×water objective.
# [4] = tested on: ARPE-19 human retinal pigment epithelial cells; experiment: Biotin uptake by streptavidin-Alexa Fluor 594 fluorescence in ARPE-19 cells; details: 1 uM, 1-hour incubation, serum-free
# Protocol: Cellular uptake and localization of peptide-conjugated biotin molecules were determined in HK-2 human renal epithelial cells and ARPE-19 human retinal pigment epithelial cells (ATCC, Manassas, VA). HK-2 cells were cultured in Dulbecco's Modified Eagle's Medium (DMEM) containing 1 g/L glucose and 10% fetal bovine serum (FBS), 100 units/ml penicillin and 100 ug/ml streptomycin. ARPE-19 cells were cultured in DMEM/F12 medium containing 1 g/L glucose and 10% fetal bovine serum (FBS), 100 units/ml penicillin and 100 ug/ml streptomycin. Cells were incubated in humidified incubator with 5% CO2 at 37° C. HK-2 cells and ARPE-19 cells were seeded in 35 mm dish at an initial density of 5×10^4 cells. FBS was removed from the culture medium for 3 days to deplete endogenous biotin in the cells. […]
# Biotin uptake was determined using Streptavidin binding. […] By using Alexa Fluor 594-conjugated streptavidin, it is possible to visualize biotin uptake using fluorescence microscopy. […] Live cell image buffer was added and Alexa-594 fluorescence (Ex/Em=591/614 nm) and Hoechst fluorescence ([…]) was observed using the Nikon Eclipse Ti2 fluorescence microscope (100×oil objective). Ten random fields from each sample were quantified by NIS-Elements Imaging Software (Nikon) for streptavidin fluorescence and normalized to Hoechst fluorescence to account for number of cells per field.
# ARPE-19 cells [5] = experiment: Cell number and viability after 30 days of serum deprivation; assay type: cell-based, human; details: 10 nM
# Protocol: Cell viability was measured using the Alamar Blue Cell Proliferation Assay (Bio-Rad), according to manufacturer's protocol. Alamar Blue uses resazurin to measure reducing power of living cells. The weakly fluorescent resazurin is reduced to the highly fluorescent resorufin when reduced by cellular metabolism. Briefly, alamar blue reagent (10 ul) was added to the culture medium and incubated for 1 h at 37° C. Fluorescence from resorufin (Ex/Em 530/590 nm) was detected using a microplate reader (SpectraMax iD3, Molecular Devices).
# In the second model, ARPE-19 cells were grown in serum-free DMEM in the absence or presence of peptide-conjugated biotin molecules for 30 days. Serum-free media was supplemented with 10 nM of SPN12, SPN15 or SPN16 compounds (all at 10 nM) was replaced every 3 days. Culture medium was replaced every 3 days.
# [6] = mouse, 2 hours after administration
structure (smiles),measurement,setting,value
"N=C(N)NCCC[C@@H](N)C(=O)N[C@@H](Cc1ccc(O)cc1)C(=O)N[C@H](CCCNC(=N)N)C(=O)N[C@@H](Cc1ccccc1)C(=O)N[C@@H](CCCCNC(=O)CCCC[C@@H]1SC[C@@H]2NC(=O)N[C@@H]21)C(N)=O [SPN15, D-Arg-L-Tyr-D-Arg-L-Phe-L-Lys(biotinyl)-NH2] (H-[dR]Y[dR]FK(Biotin)-NH2; N-terminus assumed)",absorption after ip administration,"mouse retina; living mouse, 2 hours",rapidly absorbed
same,"co-localization of streptavidin staining with COX4 staining in retina, FIG. 26",mouse retina; [6],"co-localizes with COX4 staining in the RGC, IPL, INL, and the photoreceptor IS"
same,"distribution of staining within retinal layers, FIG. 26",mouse retina; [6],concentrated in the inner and outer plexiform layers (IPL and OPL)
same,"staining in retinal pigment epithelium (RPE) cells, FIG. 27",mouse retina; [6],can clearly be seen in the RPE cells
same,"uptake into retina (Streptavidin Alexa Fluor 594 staining), FIG. 26",mouse retina; [6],clearly taken up in the different layers of the retina
same,"co-localization of biotin staining with COX4 staining (inner mitochondrial membrane), FIG. 6",[1],co-localization
same,"closure of the scratch area compared to control, FIG. 16 and FIG. 17",HK-2 cells,significantly accelerated the closure of the scratch area
same,"effectiveness in reducing scratch area compared to free biotin, FIG. 16 and FIG. 17",HK-2 cells,three times more effective
same,"wound healing (scratch closure), FIG. 18",ARPE-19 cells [2],accelerated wound healing
same,"mitochondrial potential (TMRM) and filamentous mitochondrial network, FIG. 14",[3],restore mitochondrial potential in all cells
same,"intracellular streptavidin staining (cellular uptake of biotin), microscopic images FIG. 4",[4],intense red staining with a perinuclear distribution
same,"cell viability after serum deprivation compared to control, FIG. 9",ARPE-19 cells [5]; 30 days of serum deprivation,doubled
same,"cell number after prolonged serum deprivation, microscopic images FIG. 8",ARPE-19 cells [5]; 30 days serum-free,increased cell number
